Laboratory results as given in patent US20080009418A1, “Selective Inhibitors” (Alchemia LTD., priority 2004, published 2008).

Experiments:
Human δ-opioid (DOP) = biological target: T1, Human δ-opioid (DOP) (Homo sapiens, UniProt P41143); assay: Radioligand binding, human δ-opioid (DOP) membranes, FlashPlate, [3H]-Bremazocine; settings: compound at 10 μM, [3H]-Bremazocine
T1 construct: purchased Perkin Elmer Biosignal
In short: (§1)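 Cloned human receptor membranes were coated onto FlashPlate wells and incubated with radioligand and compound (added from a 0.5 mM DMSO daughter plate) for 1 hour at room temperature in the dark. Scintillation counting gave percent inhibition, with DMSO defining total and reference ligand defining non-specific binding.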

Human κ-Opioid (KOP) = biological target: T2, Human κ-Opioid (KOP) (Homo sapiens, UniProt P41145); assay: Radioligand binding, human κ-opioid (KOP) membranes, filtration, [3H]-Diprenorphine; settings: compound at 10 μM, [3H]-Diprenorphine
T2 construct: purchased Perkin Elmer Biosignal
T2 sequence (P41145 whole entry): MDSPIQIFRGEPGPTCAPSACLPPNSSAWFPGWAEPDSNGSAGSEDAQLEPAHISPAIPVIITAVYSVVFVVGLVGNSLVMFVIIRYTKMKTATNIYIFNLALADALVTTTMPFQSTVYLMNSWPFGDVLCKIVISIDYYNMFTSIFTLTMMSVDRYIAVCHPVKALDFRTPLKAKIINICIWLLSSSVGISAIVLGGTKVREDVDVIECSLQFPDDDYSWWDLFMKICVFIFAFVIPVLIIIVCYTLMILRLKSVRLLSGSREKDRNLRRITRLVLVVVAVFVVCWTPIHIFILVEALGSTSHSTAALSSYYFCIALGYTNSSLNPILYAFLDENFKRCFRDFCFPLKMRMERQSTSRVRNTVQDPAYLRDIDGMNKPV
In short: (§2)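 Membranes from cloned human receptors were incubated with compound and radioligand for 1 hour at room temperature. Bound ligand was collected on 0.3% PEI-soaked filters, washed with cold 50 mM Tris-HCl pH 7.4, and counted by scintillation. Percent inhibition was computed against DMSO totals and reference-ligand nonspecific wells.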

Human Melanocortin (MC3) = biological target: T3, Human Melanocortin (MC3) (Homo sapiens, UniProt P41968); assay: Radioligand binding, human melanocortin MC3 membranes, FlashPlate, [125I]-NDP-αMSH; settings: compound at 10 μM, [125I]-NDP-αMSH
T3 construct: purchased Perkin Elmer Biosignal
T3 sequence (P41968 whole entry): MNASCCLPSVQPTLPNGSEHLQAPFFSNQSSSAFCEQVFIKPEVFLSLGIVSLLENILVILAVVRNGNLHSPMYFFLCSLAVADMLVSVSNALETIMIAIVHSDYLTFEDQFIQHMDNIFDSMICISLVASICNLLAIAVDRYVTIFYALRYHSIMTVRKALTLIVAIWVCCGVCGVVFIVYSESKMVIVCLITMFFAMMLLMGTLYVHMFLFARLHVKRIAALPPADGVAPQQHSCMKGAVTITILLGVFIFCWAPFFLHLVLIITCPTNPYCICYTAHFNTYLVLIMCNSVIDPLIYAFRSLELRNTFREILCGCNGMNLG
In short: as §1

Human Melanocortin (MC4) = biological target: T4, Human Melanocortin (MC4) (Homo sapiens, UniProt P32245); assay: Radioligand binding, human melanocortin MC4 membranes, FlashPlate, [125I]-NDP-αMSH; settings: compound at 10 μM, [125I]-NDP-αMSH
T4 construct: purchased Perkin Elmer Biosignal
T4 sequence (P32245 whole entry): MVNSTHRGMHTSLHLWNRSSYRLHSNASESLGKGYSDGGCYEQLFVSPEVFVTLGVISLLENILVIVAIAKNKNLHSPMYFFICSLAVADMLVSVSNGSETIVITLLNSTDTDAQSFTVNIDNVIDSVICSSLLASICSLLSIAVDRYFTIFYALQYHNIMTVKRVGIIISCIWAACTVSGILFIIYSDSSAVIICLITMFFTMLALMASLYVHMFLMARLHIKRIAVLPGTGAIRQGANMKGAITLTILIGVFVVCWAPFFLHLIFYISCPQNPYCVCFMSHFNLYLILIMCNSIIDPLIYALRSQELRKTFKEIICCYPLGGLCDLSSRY
In short: as §1

Human melanocortin (MC5) = biological target: T5, Human melanocortin (MC5) (Homo sapiens, UniProt P33032); assay: Radioligand binding, human melanocortin MC5 membranes, FlashPlate, [125I]-NDP-αMSH; settings: compound at 10 μM, [125I]-NDP-αMSH
T5 construct: purchased Perkin Elmer Biosignal
T5 sequence (P33032 whole entry): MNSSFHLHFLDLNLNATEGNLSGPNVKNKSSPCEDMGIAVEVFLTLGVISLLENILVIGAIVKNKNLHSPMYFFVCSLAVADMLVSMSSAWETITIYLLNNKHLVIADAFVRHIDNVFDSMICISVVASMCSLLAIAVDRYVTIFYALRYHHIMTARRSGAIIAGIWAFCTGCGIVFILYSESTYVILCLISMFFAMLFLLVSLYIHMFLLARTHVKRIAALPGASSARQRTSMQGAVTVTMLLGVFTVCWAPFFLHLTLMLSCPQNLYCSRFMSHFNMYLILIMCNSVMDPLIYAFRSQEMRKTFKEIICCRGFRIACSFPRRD
In short: as §1

[1] = biological target: T6, Human melanin-concentrating hormone (MCH1) (Homo sapiens, UniProt Q99705); assay: Radioligand binding, human melanin-concentrating hormone MCH1 membranes, FlashPlate, [125I]-S36057; settings: compound at 10 μM
T6 construct: purchased Perkin Elmer Biosignal
T6 sequence (Q99705 whole entry): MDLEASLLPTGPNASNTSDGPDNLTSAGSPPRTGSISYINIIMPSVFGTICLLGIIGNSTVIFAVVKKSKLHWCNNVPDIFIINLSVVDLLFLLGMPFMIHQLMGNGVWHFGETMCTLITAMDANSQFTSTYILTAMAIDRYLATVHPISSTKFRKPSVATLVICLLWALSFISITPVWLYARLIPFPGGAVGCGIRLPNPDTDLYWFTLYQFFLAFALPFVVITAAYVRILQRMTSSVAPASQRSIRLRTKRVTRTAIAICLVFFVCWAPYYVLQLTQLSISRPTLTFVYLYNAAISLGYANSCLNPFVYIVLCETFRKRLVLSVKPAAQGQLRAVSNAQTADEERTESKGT
In short: as §1

Human μ-opioid (MOP) = biological target: T7, Human μ-opioid (MOP) (Homo sapiens, UniProt P35372); assay: Radioligand binding, human μ-opioid (MOP) membranes, FlashPlate, [3H]-Naloxone; settings: compound at 10 μM, [3H]-Naloxone
T7 construct: purchased Perkin Elmer Biosignal
T7 sequence (P35372 whole entry): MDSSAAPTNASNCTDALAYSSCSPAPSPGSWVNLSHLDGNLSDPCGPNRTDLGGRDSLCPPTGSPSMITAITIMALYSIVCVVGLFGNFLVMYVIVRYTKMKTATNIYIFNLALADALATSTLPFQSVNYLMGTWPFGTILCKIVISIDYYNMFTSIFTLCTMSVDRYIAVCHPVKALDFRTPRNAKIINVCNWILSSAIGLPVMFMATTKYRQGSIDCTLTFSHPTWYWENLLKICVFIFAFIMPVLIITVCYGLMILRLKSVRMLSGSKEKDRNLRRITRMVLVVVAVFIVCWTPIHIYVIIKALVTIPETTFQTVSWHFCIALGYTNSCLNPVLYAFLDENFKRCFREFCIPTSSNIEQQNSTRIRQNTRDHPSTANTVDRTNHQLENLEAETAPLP
In short: as §1

Human neurokinin (NK1) = biological target: T8, Human neurokinin (NK1) (Homo sapiens, UniProt P25103); assay: Radioligand binding, human neurokinin NK1 membranes, filtration, [125I]-Substance P; settings: compound at 10 μM, [125I]-Substance P
T8 construct: purchased Perkin Elmer Biosignal
T8 sequence (P25103 whole entry): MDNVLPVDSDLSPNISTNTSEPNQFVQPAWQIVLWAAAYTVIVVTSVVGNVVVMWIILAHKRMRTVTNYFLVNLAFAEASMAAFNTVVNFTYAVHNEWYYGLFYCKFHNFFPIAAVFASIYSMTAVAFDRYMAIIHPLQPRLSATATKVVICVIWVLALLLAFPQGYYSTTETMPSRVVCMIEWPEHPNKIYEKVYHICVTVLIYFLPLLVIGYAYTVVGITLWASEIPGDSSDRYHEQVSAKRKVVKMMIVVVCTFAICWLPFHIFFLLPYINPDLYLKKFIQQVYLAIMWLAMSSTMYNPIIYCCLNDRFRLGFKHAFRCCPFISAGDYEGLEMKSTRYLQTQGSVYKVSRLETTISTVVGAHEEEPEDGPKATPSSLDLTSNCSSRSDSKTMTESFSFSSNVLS
In short: as §2

[2] = biological target: T9, Human neuropeptide Y (NPY-Y1) (Homo sapiens, UniProt P25929); assay: Radioligand binding, human neuropeptide Y NPY-Y1 membranes, FlashPlate, [125I]-PYY; settings: compound at 10 μM, [125I]-PYY
T9 construct: purchased Perkin Elmer Biosignal
T9 sequence (P25929 1-384): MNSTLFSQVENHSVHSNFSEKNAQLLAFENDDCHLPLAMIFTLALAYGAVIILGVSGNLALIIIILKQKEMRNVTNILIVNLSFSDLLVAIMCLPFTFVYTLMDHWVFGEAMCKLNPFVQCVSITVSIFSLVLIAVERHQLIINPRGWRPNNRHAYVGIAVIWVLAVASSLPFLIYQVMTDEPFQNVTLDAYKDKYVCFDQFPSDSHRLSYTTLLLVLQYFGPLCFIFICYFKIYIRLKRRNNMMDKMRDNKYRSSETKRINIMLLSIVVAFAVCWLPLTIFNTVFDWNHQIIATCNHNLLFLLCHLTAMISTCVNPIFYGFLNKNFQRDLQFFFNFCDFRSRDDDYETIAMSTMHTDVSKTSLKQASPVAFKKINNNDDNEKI
In short: as §1

Human opioid (ORL1) = biological target: T10, Human opioid (ORL1) (Homo sapiens, UniProt P41146); assay: Radioligand binding, human opioid ORL1 membranes, FlashPlate, [125I]-Nociceptin; settings: compound at 10 μM, [125I]-Nociceptin
T10 construct: purchased Perkin Elmer Biosignal
T10 sequence (P41146 whole entry): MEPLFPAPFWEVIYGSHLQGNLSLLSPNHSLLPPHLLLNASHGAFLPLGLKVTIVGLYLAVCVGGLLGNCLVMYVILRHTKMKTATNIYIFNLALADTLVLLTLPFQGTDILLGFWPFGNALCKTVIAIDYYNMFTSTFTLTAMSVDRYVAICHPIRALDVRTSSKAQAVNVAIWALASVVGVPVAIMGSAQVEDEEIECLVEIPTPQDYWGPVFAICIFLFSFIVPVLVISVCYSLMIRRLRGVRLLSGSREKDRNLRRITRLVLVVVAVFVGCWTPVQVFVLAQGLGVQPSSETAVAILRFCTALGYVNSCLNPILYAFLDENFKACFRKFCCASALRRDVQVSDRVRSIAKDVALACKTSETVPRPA
In short: as §1

Mouse urotensin (mUR2) = biological target: T11, Mouse urotensin (mUR2) (Mus musculus, UniProt Q8VIH9); assay: Radioligand binding, mouse urotensin mUR2 membranes, FlashPlate, [125I]-Urotensin II; settings: compound at 10 μM, [125I]-Urotensin II
T11 construct: purchased Perkin Elmer Biosignal
T11 sequence (Q8VIH9 1-385): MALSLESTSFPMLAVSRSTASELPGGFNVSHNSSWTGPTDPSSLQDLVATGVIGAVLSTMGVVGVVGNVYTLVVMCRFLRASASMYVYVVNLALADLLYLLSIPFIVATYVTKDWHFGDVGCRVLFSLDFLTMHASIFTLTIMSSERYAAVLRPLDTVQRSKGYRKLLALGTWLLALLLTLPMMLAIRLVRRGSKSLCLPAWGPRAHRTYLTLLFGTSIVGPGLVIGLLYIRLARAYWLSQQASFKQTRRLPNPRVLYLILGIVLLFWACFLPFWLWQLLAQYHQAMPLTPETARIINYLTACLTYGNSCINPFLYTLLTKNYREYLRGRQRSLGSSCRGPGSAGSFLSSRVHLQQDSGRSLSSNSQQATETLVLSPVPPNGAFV
In short: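 Cloned mouse urotensin (mUR2) receptor membranes from Perkin Elmer Biosignal were immobilized in FlashPlate microplates using a proprietary coating. Each well got 19.5 μl buffer, then 0.5 μl of DMSO, reference ligand, or compound. Adding 5 μl of [125I]-Urotensin II, diluted to 5× final concentration in binding buffer, started binding. Plates were sealed with TopSeal-A and incubated 1 hour at room temperature in the dark. Wells were counted for 30 seconds each on a TopCount after a 60-second delay, and percentage inhibition was calculated.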

[3] = [125I]-S36057, human MCH1 membranes

T1 sequence (P41143 whole entry): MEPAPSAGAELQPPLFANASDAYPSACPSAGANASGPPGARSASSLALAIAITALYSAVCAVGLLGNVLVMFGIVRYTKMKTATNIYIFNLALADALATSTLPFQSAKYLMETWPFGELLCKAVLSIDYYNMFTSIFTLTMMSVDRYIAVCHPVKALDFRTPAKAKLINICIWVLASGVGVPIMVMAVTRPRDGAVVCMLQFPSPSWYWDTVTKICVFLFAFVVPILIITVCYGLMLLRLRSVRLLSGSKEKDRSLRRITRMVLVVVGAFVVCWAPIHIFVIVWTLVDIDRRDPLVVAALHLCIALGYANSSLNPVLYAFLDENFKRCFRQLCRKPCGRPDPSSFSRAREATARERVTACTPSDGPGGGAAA

## CO[C@H]1[C@H](O)[C@@H](COCc2ccc3ccccc3c2)OC(OCCc2ccccc2)[C@@H]1NC(=O)CCNC(=N)N (stereo partly shown) [compound 114]
Human δ-opioid (DOP)
  A1 radioligand binding, percentage inhibition: − (“−” indicates less than 50% inhibition at 10 μM)
Human κ-Opioid (KOP)
  A2 radioligand binding, percentage inhibition: + (“+” indicates greater than 50% inhibition at 10 μM)
Human Melanocortin (MC3)
  A3 radioligand binding, percentage inhibition: − (“−” indicates less than 50% inhibition at 10 μM)
Human Melanocortin (MC4)
  A4 radioligand binding, percentage inhibition: + (“+” indicates greater than 50% inhibition at 10 μM)
Human melanocortin (MC5)
  A5 radioligand binding, percentage inhibition: + (“+” indicates greater than 50% inhibition at 10 μM)
[1]; [125I]-S36057
  A6 radioligand binding, percentage inhibition: − (“−” indicates less than 50% inhibition at 10 μM)
Human μ-opioid (MOP)
  A7 radioligand binding, percentage inhibition: − (“−” indicates less than 50% inhibition at 10 μM)
Human neurokinin (NK1)
  A8 radioligand binding, percentage inhibition: + (“+” indicates greater than 50% inhibition at 10 μM)
[2]
  A9 radioligand binding, percentage inhibition: − (“−” indicates less than 50% inhibition at 10 μM)
Human opioid (ORL1)
  A10 radioligand binding, percentage inhibition: − (“−” indicates less than 50% inhibition at 10 μM)
Mouse urotensin (mUR2)
  A11 radioligand binding, percentage inhibition: − (“−” indicates less than 50% inhibition at 10 μM)

## N=C(N)NCC(=O)NC1C(OCc2ccc(Cl)cc2)OC(COCc2ccc(Cl)cc2)C(O)C1OCc1ccc2ccccc2c1 (stereo not shown) [compound 422]
Human δ-opioid (DOP); human DOP membranes
  A1: inhibition of radioligand binding: − (“−” indicates less than 50% inhibition at 10 μM)
Human κ-Opioid (KOP); human KOP membranes
  A2: inhibition of radioligand binding: − (“−” indicates less than 50% inhibition at 10 μM)
Human Melanocortin (MC3); human MC3 membranes
  A3: inhibition of radioligand binding: + (“+” indicates greater than 50% inhibition at 10 μM)
Human Melanocortin (MC4); human MC4 membranes
  A4: inhibition of radioligand binding: + (“+” indicates greater than 50% inhibition at 10 μM)
Human melanocortin (MC5); human MC5 membranes
  A5: inhibition of radioligand binding: + (“+” indicates greater than 50% inhibition at 10 μM)
[1]; [3]
  A6: inhibition of radioligand binding: + (“+” indicates greater than 50% inhibition at 10 μM)
Human μ-opioid (MOP); human MOP membranes
  A7: inhibition of radioligand binding: − (“−” indicates less than 50% inhibition at 10 μM)
Human neurokinin (NK1); human NK1 membranes
  A8: inhibition of radioligand binding: + (“+” indicates greater than 50% inhibition at 10 μM)
[2]; human NPY-Y1 membranes
  A9: inhibition of radioligand binding: − (“−” indicates less than 50% inhibition at 10 μM)
Human opioid (ORL1); human ORL1 membranes
  A10: inhibition of radioligand binding: + (“+” indicates greater than 50% inhibition at 10 μM)
Mouse urotensin (mUR2); mouse mUR2 membranes
  A11: inhibition of radioligand binding: − (“−” indicates less than 50% inhibition at 10 μM)

## CSC1OC(COCc2ccccc2)C(O)C(OCc2ccc3ccccc3c2)C1NC(=O)CCCNC(=N)N (stereo not shown) [compound 305]
Human δ-opioid (DOP)
  A1: inhibition of radioligand binding, human δ-opioid (DOP): − (“−” indicates less than 50% inhibition at 10 μM)
Human κ-Opioid (KOP)
  A2: inhibition of radioligand binding, human κ-opioid (KOP): − (“−” indicates less than 50% inhibition at 10 μM)
Human Melanocortin (MC3)
  A3: inhibition of radioligand binding, human melanocortin (MC3): − (“−” indicates less than 50% inhibition at 10 μM)
Human Melanocortin (MC4)
  A4: inhibition of radioligand binding, human melanocortin (MC4): − (“−” indicates less than 50% inhibition at 10 μM)
Human melanocortin (MC5)
  A5: inhibition of radioligand binding, human melanocortin (MC5): + (“+” indicates greater than 50% inhibition at 10 μM)
[1]; [125I]-S36057
  A6: inhibition of radioligand binding, human melanin-concentrating hormone (MCH1): − (“−” indicates less than 50% inhibition at 10 μM)
Human μ-opioid (MOP)
  A7: inhibition of radioligand binding, human μ-opioid (MOP): − (“−” indicates less than 50% inhibition at 10 μM)
Human neurokinin (NK1)
  A8: inhibition of radioligand binding, human neurokinin (NK1): + (“+” indicates greater than 50% inhibition at 10 μM)
[2]
  A9: inhibition of radioligand binding, human neuropeptide Y (NPY-Y1): − (“−” indicates less than 50% inhibition at 10 μM)
Human opioid (ORL1)
  A10: inhibition of radioligand binding, human opioid (ORL1): − (“−” indicates less than 50% inhibition at 10 μM)
Mouse urotensin (mUR2)
  A11: inhibition of radioligand binding, mouse urotensin (mUR2): − (“−” indicates less than 50% inhibition at 10 μM)

## N=C(N)NCC(=O)NC1C(OCc2ccc(Cl)cc2)OC(COCc2ccccc2)C(O)C1OCc1ccc(Cl)cc1 (stereo not shown) [compound 418]
Human δ-opioid (DOP); human DOP membranes
  A1: inhibition of radioligand binding: − (“−” indicates less than 50% inhibition at 10 μM)
Human κ-Opioid (KOP); human KOP membranes
  A2: inhibition of radioligand binding: − (“−” indicates less than 50% inhibition at 10 μM)
Human Melanocortin (MC3); human MC3 membranes
  A3: inhibition of radioligand binding: + (“+” indicates greater than 50% inhibition at 10 μM)
Human Melanocortin (MC4); human MC4 membranes
  A4: inhibition of radioligand binding: + (“+” indicates greater than 50% inhibition at 10 μM)
Human melanocortin (MC5); human MC5 membranes
  A5: inhibition of radioligand binding: + (“+” indicates greater than 50% inhibition at 10 μM)
[1]; [3]
  A6: inhibition of radioligand binding: + (“+” indicates greater than 50% inhibition at 10 μM)
Human μ-opioid (MOP); human MOP membranes
  A7: inhibition of radioligand binding: − (“−” indicates less than 50% inhibition at 10 μM)
Human neurokinin (NK1); human NK1 membranes
  A8: inhibition of radioligand binding: + (“+” indicates greater than 50% inhibition at 10 μM)
[2]; human NPY-Y1 membranes
  A9: inhibition of radioligand binding: − (“−” indicates less than 50% inhibition at 10 μM)
Human opioid (ORL1); human ORL1 membranes
  A10: inhibition of radioligand binding: + (“+” indicates greater than 50% inhibition at 10 μM)
Mouse urotensin (mUR2); mouse mUR2 membranes
  A11: inhibition of radioligand binding: − (“−” indicates less than 50% inhibition at 10 μM)

## COCC1OC(OCCc2ccccc2)C(NC(=O)CNC(=N)N)C(OCc2ccccc2)C1O (stereo not shown) [compound 215]
Human δ-opioid (DOP); FlashPlate
  A1: inhibition of radioligand binding: − (“−” indicates less than 50% inhibition at 10 μM)
Human κ-Opioid (KOP); filtration
  A2: inhibition of radioligand binding: − (“−” indicates less than 50% inhibition at 10 μM)
Human Melanocortin (MC3); FlashPlate
  A3: inhibition of radioligand binding: − (“−” indicates less than 50% inhibition at 10 μM)
Human Melanocortin (MC4); FlashPlate
  A4: inhibition of radioligand binding: − (“−” indicates less than 50% inhibition at 10 μM)
Human melanocortin (MC5); FlashPlate
  A5: inhibition of radioligand binding: + (“+” indicates greater than 50% inhibition at 10 μM)
[1]; [125I]-S36057, FlashPlate
  A6: inhibition of radioligand binding: − (“−” indicates less than 50% inhibition at 10 μM)
Human μ-opioid (MOP); FlashPlate
  A7: inhibition of radioligand binding: − (“−” indicates less than 50% inhibition at 10 μM)
Human neurokinin (NK1); filtration
  A8: inhibition of radioligand binding: + (“+” indicates greater than 50% inhibition at 10 μM)
[2]; FlashPlate
  A9: inhibition of radioligand binding: − (“−” indicates less than 50% inhibition at 10 μM)
Human opioid (ORL1); FlashPlate
  A10: inhibition of radioligand binding: − (“−” indicates less than 50% inhibition at 10 μM)
Mouse urotensin (mUR2); FlashPlate
  A11: inhibition of radioligand binding: − (“−” indicates less than 50% inhibition at 10 μM)
